The data set has as its system CHIKV. Format: cell-based, chikungunya virus.
Consider “Hs_KIAA0252_2 (sense AAGGAATTATCTATTAAAGAA; chemistry not given here)”, for which the Score_si1 amounted to 2.74.

“s24924 (sense CAGTCGTCCTCAGATGATA; chemistry not given here) [reference compound]” came in with a Score_si3 of -0.67.

In turn, “Hs_WDR40A_1 (CAGCATCAATGTGATTAGTAA; chemistry not given here) [reference compound]” showed a Score_si1 of -2.68.

In the case of “Hs_PRPF40A_2 (sense CTGGAAAGCCTTACTATTATA; chemistry not given here)”, the Score_si1 turned out to be 2.41.

“Hs_MGC11102_2 (CAGGTGGTTTGTTCTTTCTTA; chemistry not given here)” returned a Score_si1 of 1.25.

Take “Hs_ZBTB24_1 (CTCCAGGAAATTAAATATTTA; chemistry not given here)”: the Score_si2 came out at 1.74.

Turning to “s18074 (CCTCGAGACTATACGGTTA; chemistry not given here) [reference compound]”, the Score_si4 is -0.5.

“Hs_TRAF2_4 (CTGGACCAAGACAAGATTGAA; chemistry not given here) [reference compound]” gave a Score_si1 of -1.15.

“s195061 (sense CTGTATGGCTTCTATATAA; chemistry not given here)” gave a Score_si4 of 1.03.

For the substance “Hs_KIAA0674_1 (sense CCGGAAACAACTGGAACTCAA; chemistry not given here)”, the Score_si1 amounted to 1.96.

Substance “s992 (GTGTTTTTCCGTAAGCATA; chemistry not given here) [reference compound]” had a Score_si3 of -0.52.

The substance “s31658 (CGGCCTCTGAGGTGATCAA; chemistry not given here)” had a Score_si2 of 1.55.

“s16318 (AGGCATCTTTGAGACGATT; chemistry not given here)” came in with a Score_si3 of 0.61.

“Hs_RXRA_4 (sense CTCATCGGCCTTGTAGTTGTA; chemistry not given here)” returned a Score_si2 of 1.74.

For “s12382 (sense GATCCGAGCTAAAATCCCA; chemistry not given here)”, the Score_si2 was 1.86.

In turn, “s16317 (GAACGAGTCCTTGAAGGTT; chemistry not given here)” registered a Score_si4 of 0.08.

For “Hs_GUCY1B3_1 (sense AAGGGTCAAATGATCTACTTA; chemistry not given here) [reference compound]”, the Score_si2 is -0.88.

On to “s25184 (sense CCCATCAACTTCTCCGTGA; chemistry not given here)”, for which the Score_si4 came out at 0.53.

On to “Hs_CALM2_5 (ACAAAGGAATTGGGAACTGTA; chemistry not given here)”, for which the Score_si4 is 0.05.

“s17592 (GCAACTCTCCTTCACCAAT; chemistry not given here) [reference compound]” had a Score_si4 of -0.08.

On to “Hs_PPIL2_3 (CACCAATTTGGACAAGTTCAA; chemistry not given here)”, for which the Score_si2 was 1.2.

“s16461 (GGTCAATCCTAGTATCTCT; chemistry not given here)” displayed a Score_si3 of 0.88.

Substance “s12110 (sense CAATCTCTCTTATCCTTGA; chemistry not given here)” displayed a Score_si2 of 1.28.

On to “s38698 (GGATTCTTGTTGGACTAAT; chemistry not given here)”, for which the Score_si4 was -0.7.

With “Hs_EIF2B2_2 (CAACATCATTGAGGCGATTAA; chemistry not given here)”, the Score_si1 is 2.1.

Substance “Hs_LOXL2_3 (sense CAGGCAATGAGAAGTCCATTA; chemistry not given here)” displayed a Score_si1 of 2.38.

In the case of “s27237 (sense ACACTAAAGAATTCCGGAA; chemistry not given here) [reference compound]”, the Score_si3 is listed as -0.27.

Take “s18271 (CCTCTTCACTAAGACCCAT; chemistry not given here)”: the Score_si3 is recorded as 1.67.

The substance “s37726 (ACTTTTCCCTCTCTCCTAA; chemistry not given here)” had a Score_si3 of 0.28.

For the substance “Hs_GUCY1B3_2 (sense ACCTAACATGGTGATCTGCAA; chemistry not given here) [reference compound]”, the Score_si1 was -1.2.

“Hs_BRD8_4 (CCGGCTGTCTCCACTACTGAA; chemistry not given here)” displayed a Score_si1 of 2.93.

For “Hs_NPAT_2 (AAGGCACATCTTCAAACAATA; chemistry not given here) [reference compound]”, the Score_si1 is -1.61.

With “s38816 (GAACATCTGGATCAAGAGA; chemistry not given here)”, the Score_si3 is given as 1.02.

Consider “s17301 (GCCTGGTATTTTGAAATCA; chemistry not given here)”, for which the Score_si3 was found to be 0.7.

The substance “s6098 (sense CCTTTAACGTGGACATGTA; chemistry not given here)” came in with a Score_si1 of 1.88.

As to “s915 (CATCCAGTCTGTATACGAA; chemistry not given here)”, the Score_si1 is 1.9.

For “Hs_GRB10_4 (sense GTGAATTGTTGGAGAATGTAA; chemistry not given here)”, the Score_si3 is 0.73.

Substance “s28640 (CACTCACACCATCCTATGA; chemistry not given here)” registered a Score_si1 of 1.62.

For the substance “Hs_PTX3_2 (sense AAGAAAGAAACTCACACTTAA; chemistry not given here)”, the Score_si1 was 1.48.

“s617 (sense GGTCTTGGAGGGAATCCTA; chemistry not given here)” came in with a Score_si2 of 1.33.

Take “Hs_GSTP1_2 (sense CCAGATCTCCTTCGCTGACTA; chemistry not given here)”: the Score_si1 is reported as 2.46.

With “s50641 (sense ACAACTCTGTGCACAACAA; chemistry not given here)”, the Score_si4 came out at 0.17.

Substance “s26802 (sense ACATCTCAGGGACCCATTT; chemistry not given here)” registered a Score_si4 of 1.65.

The substance “Hs_FLJ11752_1 (sense CTGGATATTACTAGAGTTGTA; chemistry not given here)” yielded a Score_si1 of 2.31.

In turn, “Hs_NDUFA7_1 (CAGGGAGAATGTGACCTAATT; chemistry not given here) [reference compound]” came in with a Score_si1 of -2.23.

“Hs_PHF10_4 (TCCAGGGAAGACAGAAATCAA; chemistry not given here)” displayed a Score_si3 of 0.57.

For “s15685 (sense GGATGAGAGTCGCACCTAT; chemistry not given here)”, the Score_si1 turned out to be 2.03.

“s9719 (GGTCTATGATTGACAAGTA; chemistry not given here)” showed a Score_si1 of 1.65.

“Hs_UBE2C_9 (AGCCCTTGTATATTAAATAAA; chemistry not given here) [reference compound]” displayed a Score_si2 of -0.83.

In turn, “Hs_GPS1_6 (sense CAGCCTGGATCTGGAACAGTA; chemistry not given here)” registered a Score_si2 of 1.76.

The substance “Hs_CLTC_12 (sense CCGGAGAGATTTCTTCGTGAA; chemistry not given here)” had a Score_si2 of 2.21.

“s18241 (GCTTGATGGTTCAACTCCA; chemistry not given here)” showed a Score_si1 of 2.01.

“Hs_IQGAP1_3 (sense AAGGCATATCAAGATCGGTTA; chemistry not given here)” gave a Score_si4 of 0.77.

Consider “Hs_LOXL2_1 (sense CCGGAGTTGCCTGCTCAGAAA; chemistry not given here)”, for which the Score_si2 is given as 1.33.

Regarding “s28379 (sense GAGTTACGATTGTACCCTA; chemistry not given here)”, the Score_si3 is reported as 1.67.

As for “s25487 (sense AGTATTTGTTGGTTCATAA; chemistry not given here)”, the Score_si2 is 1.54.

Regarding “Hs_F25965_2 (ACCAGCTTCGTTACTCAGAAA; chemistry not given here)”, the Score_si3 amounted to 1.05.

With “Hs_CSNK1A1_5 (sense AGGGCTAAAGGCTGCAACAAA; chemistry not given here)”, the Score_si1 amounted to 2.25.

For the substance “Hs_THRAP6_1 (sense ATGAAAGATTATTGTAATAAA; chemistry not given here) [reference compound]”, the Score_si2 is -1.47.

“Hs_NUDT1_5 (CCGCGAGGTGGACACGGTCTA; chemistry not given here)” yielded a Score_si1 of 2.08.

Turning to “Hs_UBE2C_4 (CAGGACCATTCTGCTCTCCAT; chemistry not given here) [reference compound]”, the Score_si3 was -0.75.

Take “s27641 (sense GGGAAACAGTTGGAAGAGA; chemistry not given here)”: the Score_si3 worked out at 1.64.

The substance “Hs_ITGB4BP_3 (sense CAGGGAGACAGAAGAAATTCT; chemistry not given here)” gave a Score_si1 of 1.54.

Substance “s10094 (AGATCAAAGAGATCCGCGA; chemistry not given here)” gave a Score_si4 of 0.28.

The substance “Hs_LOC283377_7 (sense AAAGCTAGGCATACAGCCAAA; chemistry not given here)” displayed a Score_si3 of 0.76.

“Hs_DOK6_5 (CTGAGCAACATGAAAGATTAA; chemistry not given here) [reference compound]” yielded a Score_si1 of -2.96.

Take “Hs_ATF1_6 (AACCTAGTACATTACTAAATA; chemistry not given here) [reference compound]”: the Score_si4 is given as -0.75.

In turn, “s16316 (GAATTAGGAAGGACTATTT; chemistry not given here)” returned a Score_si2 of 0.85.

With “Hs_RASL11B_2 (sense ATGCTTTGGCTTAAACTGTAA; chemistry not given here)”, the Score_si1 turned out to be 2.53.

Turning to “s31790 (GGCTGTTCCTGAGACTGCA; chemistry not given here)”, the Score_si4 is given as 0.92.

Consider “s2529 (sense GCACCCGGTTTATCAGTAA; chemistry not given here)”, for which the Score_si4 turned out to be 0.17.

Substance “Hs_HTATIP_8 (sense CACCACATTGCCTGTCCTCTA; chemistry not given here)” had a Score_si1 of 2.67.

In turn, “s26119 (sense CATGGATGAGTTTACCCAA; chemistry not given here) [reference compound]” gave a Score_si3 of -0.65.
